In patent US4296206A, “Irreversible anti-glucocorticoids” (United States of America, priority 1980, dated 1981):
pKi: −log10 of the molar value. “And” between values parts separate entries of the source, which are not always exact repeats. Equal values may be shown once. “Also recorded” adds a separate entry of the source.

Tests used:
[1] = target: T1, HTC cell glucocorticoid receptors (Rattus norvegicus, UniProt P06536); assay: cell-free competition assay with 3H-dexamethasone, crude HTC cell receptors; assay type: binding
T1 construct: crude receptors from a well characterized line of rat hepatoma tissue culture (HTC) cells; endogenous in cells; host or cells: HTC (rat hepatoma tissue culture) cells, crude cytosol
T1 sequence (P06536 1-795): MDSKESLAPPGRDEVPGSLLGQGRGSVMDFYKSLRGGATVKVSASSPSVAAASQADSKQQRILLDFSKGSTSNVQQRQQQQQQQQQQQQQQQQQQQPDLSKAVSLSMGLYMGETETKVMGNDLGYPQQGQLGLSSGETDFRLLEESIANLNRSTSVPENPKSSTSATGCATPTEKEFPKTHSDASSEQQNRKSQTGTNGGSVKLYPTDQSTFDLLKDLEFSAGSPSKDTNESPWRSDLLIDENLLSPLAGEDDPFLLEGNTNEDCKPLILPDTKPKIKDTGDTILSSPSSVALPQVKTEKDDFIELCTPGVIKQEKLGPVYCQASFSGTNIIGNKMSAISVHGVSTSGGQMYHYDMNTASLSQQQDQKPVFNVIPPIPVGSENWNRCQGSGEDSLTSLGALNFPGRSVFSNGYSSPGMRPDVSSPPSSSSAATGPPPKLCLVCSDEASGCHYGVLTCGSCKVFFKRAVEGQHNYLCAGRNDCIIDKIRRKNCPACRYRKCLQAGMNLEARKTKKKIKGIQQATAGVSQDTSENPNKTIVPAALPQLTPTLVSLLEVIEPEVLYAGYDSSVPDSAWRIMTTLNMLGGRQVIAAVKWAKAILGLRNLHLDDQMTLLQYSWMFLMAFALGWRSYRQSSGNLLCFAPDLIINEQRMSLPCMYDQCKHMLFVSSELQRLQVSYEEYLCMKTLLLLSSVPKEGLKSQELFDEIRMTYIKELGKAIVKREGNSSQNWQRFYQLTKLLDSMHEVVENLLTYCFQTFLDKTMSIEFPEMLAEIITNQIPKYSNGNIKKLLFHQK
Text: (§1) Ir (nujol) ~3400. 1733, 1659, 1359, 1170 cm^-1. […] 59.98; H. 7.32; S. 7.28.
In general, the introduction of bulky substituents on the C21 of glucocorticoids results in derivatives with a reduced affinity for glucocorticoid receptors as described, for example, in Failla, D. et al., Proc. Nat. Acad. Sci. USA, 72, 3849-3852 (1975). […] The data for FIG. 1 was obtained from a determination of relative affinities of cortisol and cortisol-21-mesylate for HTC cell glucocorticoid receptors in a cell-free competition assay. Duplicate crude HTC cell receptor solutions were incubated for 3 hrs at 0° with 5.6×10^-9 M ^3 H-dexamethasone and varying concentrations of cortisol, or CM (final protein concentration=5.1 mg/ml). A 500 fold excess of ^1 H-dexamethasone was used to determine the level of non-specific binding of ^3 H-steroid. The average specifically bound ^3 H-dexamethasone in the presence of varying concentrations of cortisol or CM was plotted as % of the uncompeted control (variation less than ±4%).

[2] = target: T1, HTC cell glucocorticoid receptors; assay: cell-free exchange assay (3H-dexamethasone exchange binding to pre-formed complexes); settings: for effect of pre-incubation of steroid-free receptors on subsequent exchange-binding of 3H-dexamethasone: cell-free
Protocol: as §1
To examine this possibility in more detail, a determination was made as to whether the cell-free binding of CM to HTC cell receptors is reversible. Using the previously described exchange assay, crude HTC cell receptors were incubated with enough cortisol, or CM, to occupy ~75% of the receptor based on data of FIG. 1. After ~3 hrs, activated charcoal was added to remove free steroid and to inactivate steroid-free receptors. An excess of ^3 H-dexamethasone was then added to exchange-bind to the previously formed receptor-steroid complexes. […] Thus CM is an irreversible inhibitor of one aspect of glucocorticoid action in broken cells, i.e., the ability of glucocorticoids to exchange-bind to receptor-glucocorticoid complexes.
FIG. 5 is based on data obtained in studying inhibition of ^3 H-dexamethasone exchange binding to pre-formed complexes by cortisol-21-mesylate. Using the previously described exchange assay, crude HTC cell receptors were pre-incubated with 6×10^-8 M cortisol or 1.35×10^-6 M CM for 2.8 hrs at 0° (final protein concentration=7.0 mg/ml). After addition of activated charcoal to remove free steroid, and to inactivate steroid-free receptors, followed by centrifugation to pellet the activated charcoal, the pre-incubated cytosols were adjusted to 1.9×10^-8 M ^3 H-dexamethasone ±1.1×10^-5 M ^1 H-dexamethasone. After subsequent incubation for the indicated time, activated charcoal was again added to determine the amount of specifically bound ^3 H-dexamethasone (=total-non-specific binding) that was formed by exchange binding in cortisol or CM pre-incubated cytosols. For comparison, the amount of non-specific binding in cortisol or CM pre-incubated receptor solutions is shown in dashed lines.

[3] = target: T2, dexamethasone induction of TAT in HTC cells (Rattus norvegicus, UniProt P06536); assay: TAT induction after pre-treatment of HTC cells and washing (reversibility); assay type: cell-based; settings: for reversal of pre-incubation effect on dexamethasone induction of TAT by washing the cells: pre-incubation overnight, wash, then 2×10^-8 M dexamethasone
T2 construct: endogenous in cells; host or cells: HTC (rat hepatoma tissue culture) cells, whole, monolayer or spinner cultures
T2 sequence (P06536 1-795): T1 sequence (P06536 1-795)
Protocol: One approach to establishing CM as an irreversible inhibitor of TAT induction by glucocorticoids is to determine whether the effects of CM can be reversed by washing the cells.
After incubation at 37°/15 1/2 hrs, ~6×10^7 cells were centrifuged at 600 xg/10 min/22°and resuspended in 200 ml of "conditioned" medium that had also been "incubated" at 37°/15 1/2 hrs. After a second centrifugation, each cell pellet was again resuspended in 210 ml of "conditioned" medium. […] The cells in Wheaton bottles were incubated in a rotating water bath (37°/175 rpm) with 3 ml aliquots being removed at various time points for protein and TAT determinations in the usual manner.

[4] = target: T2, dexamethasone induction of TAT in HTC cells; assay: inhibition of dexamethasone induction of TAT activity in whole HTC cells; assay type: cell-based
Protocol: as §1
Alternatively, CM could be a anti-inducer, or inhibitor of glucocorticoid action. […] After the usual incubation (18 hrs/37°) and work-up, the specific enzyme activity of TAT was plotted against the concentration of that steroid present in varying amounts. The range of each duplicate determination is shown by error bars when it exceeds the area of the data points. The basal level of TAT activity is indicated by the dashed line.

[5] = system: tyrosine aminotransferase (TAT) induction in HTC cells; assay: induction of tyrosine aminotransferase (TAT) in whole HTC cells; assay type: cell-based, rat
Text: as §1
HTC cells display several biological responses to glucocorticoids. Tyrosine aminotransferase (TAT) is one specific, glucocorticoid inducible enzyme in HTC cells; and previous extensive studies argue that TAT induction in HTC cells is a primary response to glucocorticoids that is initiated by the binding of steroid to a specific, cytoplasmic receptor. […] The basal level of TAT activity is shown by the dashed line.

[6] = cell toxicity in HTC cells (protein content, cell number, trypan blue exclusion); settings: rat
rats = assay: experiment with rats, daily intraperitoneal injections; assay type: in vivo, rat
Text: In the experiments and uses of CM and DM described above, the toxicity of either compound was negligible. […] In order to be more useful in animals and people, two approaches can be used to reduce this toxicity. […] Second, alternative routes of administration (e.g., oral, intravenous, intramuscular and subcutaneous) might be less toxic.

in vitro = settings: rat, htc cells

C[C@@H]1C[C@H]2[C@@H]3CCC4=CC(=O)C=C[C@]4(C)[C@@]3(F)[C@@H](O)C[C@]2(C)[C@@]1(O)C(=O)COS(C)(=O)=O [DM, 16α-methyl-9α-fluoro-1,4-pregnadiene-11β, 17α, 21-triol-3, 20-dione-21-methane-sulfonate]
cell-free affinity for the glucocorticoid receptors of HTC cells [1]: low but significant
affinity for cell free receptors, fold higher than CM ([1]; cell free receptors): approximately 10 fold
effect of pre-incubation of steroid-free receptors on subsequent exchange-binding of 3H-dexamethasone [2]: inhibits
reversal of pre-incubation effect on dexamethasone induction of TAT by washing the cells [3]: cannot be reversed by washing the cells
inhibition of TAT induction by dexamethasone in whole cells [4]: potent inhibitors
Emax ([5]; Rattus norvegicus, whole HTC cells, read-out: induction of TAT in HTC cells, % of full induction): ~25%

C[C@]12CCC(=O)C=C1CC[C@@H]1[C@@H]2[C@@H](O)C[C@@]2(C)[C@H]1CC[C@]2(O)C(=O)COS(C)(=O)=O [CM, 4-pregnene-11β, 17α, 21-triol-3, 20-dione-21-methanesulfonate]
cytotoxicity at 13 µM [6]: 12%
viability [6]: 93 to 94%
cell-free affinity for the glucocorticoid receptors of HTC cells [1]: low but significant
affinity for glucocorticoid receptors, fold lower than that of the parent steroid cortisol ([1]; 3 hrs at 0°, 5.6×10^-9 M 3H-dexamethasone, crude HTC cell receptors): 15 fold
apparent Kd with HTC cell glucocorticoid receptors, times greater than the Kd of cortisol ([1]; CM): 15 times
effect of pre-incubation of steroid-free receptors on subsequent exchange-binding of 3H-dexamethasone [2]: inhibits
inhibition at 1.35 µM ([2]; pre-incubation 1.35×10^-6 M CM, ~3 hrs at 0°, read-out: reduction of the ability of receptors to exchange-bind 3H-dexamethasone): ~75%
effect on cell number (HTC cells): no effect
effect on total cell protein (HTC cells): ~1% increase to 6% decrease
anti-glucocorticoid activity in rats (rats; daily intraperitoneal injections of 10-50 mg per kilogram): some anti-glucocorticoid activity
toxicity in rats at higher doses (rats; ≥100 mg/kilogram, intraperitoneal): peritonitis and death
magnitude of TAT induction 24 hrs after the wash procedure in pre-treated, post-dexamethasone treated cells ([3]; 24 hrs after wash): significantly reduced; also recorded: only partial induction
appearance of TAT in pre-treated cells, delay after TAT induction in EtOH or progesterone pre-treated cells ([3]; average of three experiments): 2.7 h
time without TAT induction after the wash procedure in pre-treated, post-dexamethasone treated cells ([3]; pre-CM, post-dexamethasone): ~ 8 hrs and 6-8 hrs
reversal of pre-incubation effect on dexamethasone induction of TAT by washing the cells [3]: can not reverse; also recorded: cannot be reversed by washing the cells
pKi [4]: ~7.00
inhibition of TAT induction by dexamethasone in whole cells [4]: potent inhibitors
TAT induction by 2×10^-8 M dexamethasone in the presence of the compound ([4]; 1.3×10^-6 M CM): slight but significant increase in TAT
TAT induction by 10^-7 M cortisol in the presence of the compound ([4]; 1.3×10^-6 M CM): unable to induce TAT
duration of activity as anti-glucocorticoid in HTC cell cultures ([4]; 37°, tissue culture): ~ 18 hrs and 17-18 hrs
time after which no longer completely inhibitory (some inducibility of TAT returns) ([4]; HTC cells): about 24 hr
induction of TAT in whole HTC cells ([5]; 18 hrs at 37°): completely inactive; also recorded: does not induce TAT
cytotoxicity (in vitro): 20%
